Measurements published in ChEMBL document CHEMBL4376872, “Scaffold Hopping of Natural Product Evodiamine: Discovery of a Novel Antitumor Scaffold with Excellent Potency against Colon Cancer” (J Med Chem, 2020).
Activity calls are given as the source filed them. The calls are words filed in the database; no cut-off is given here.

How the values were obtained:
HCT-116 = experiment: Antiproliferative activity against human HCT116 cells assessed as reduction in cell viability incubated for 72 hrs by CCK8 assay; type: functional, cell-based; conditions: HCT-116, 72 h
MDA-MB-435 = experiment: Antiproliferative activity against human MDA-MB-435 cells assessed as reduction in cell viability incubated for 72 hrs by CCK8 assay; type: functional, cell-based; conditions: MDA-MB-435, 72 h
A549 = experiment: Antiproliferative activity against human A549 cells assessed as reduction in cell viability incubated for 72 hrs by CCK8 assay; type: functional, cell-based; conditions: A549, 72 h
[1] = biological target: T1, DNA topoisomerase 1 (Escherichia coli (strain K12)) (UniProt P06612); experiment: Inhibition of Escherichia coli Top1 assessed as decrease in relaxation of supercoiled pBR322 plasmid DNA at 100 uM using supercoiled pBR322 plasmid DNA as substrate incubated for 15 mins by agarose gel electrophoresis analysis
T1 sequence (whole entry): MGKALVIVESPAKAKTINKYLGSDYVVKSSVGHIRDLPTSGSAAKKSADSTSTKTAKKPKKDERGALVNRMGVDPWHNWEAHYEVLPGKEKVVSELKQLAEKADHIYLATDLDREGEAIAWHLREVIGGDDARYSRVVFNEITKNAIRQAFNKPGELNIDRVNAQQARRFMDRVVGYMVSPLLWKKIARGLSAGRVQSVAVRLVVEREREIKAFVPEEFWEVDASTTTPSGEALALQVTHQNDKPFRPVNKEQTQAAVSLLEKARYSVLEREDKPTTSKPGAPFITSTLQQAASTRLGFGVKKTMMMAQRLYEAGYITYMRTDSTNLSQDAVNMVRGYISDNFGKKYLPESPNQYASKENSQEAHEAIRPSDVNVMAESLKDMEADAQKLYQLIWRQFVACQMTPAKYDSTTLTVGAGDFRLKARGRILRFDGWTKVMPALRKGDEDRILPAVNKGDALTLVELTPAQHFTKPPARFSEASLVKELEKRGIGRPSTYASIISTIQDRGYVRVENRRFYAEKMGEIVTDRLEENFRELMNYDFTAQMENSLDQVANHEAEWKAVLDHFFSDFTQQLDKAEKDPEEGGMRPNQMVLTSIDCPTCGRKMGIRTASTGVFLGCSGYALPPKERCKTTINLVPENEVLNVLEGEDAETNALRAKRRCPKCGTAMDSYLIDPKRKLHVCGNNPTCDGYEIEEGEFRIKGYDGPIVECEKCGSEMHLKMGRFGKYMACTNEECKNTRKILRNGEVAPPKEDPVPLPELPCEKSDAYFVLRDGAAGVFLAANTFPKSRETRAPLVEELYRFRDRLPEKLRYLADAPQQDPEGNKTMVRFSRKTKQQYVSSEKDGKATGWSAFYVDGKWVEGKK

[2] = biological target: DNA topoisomerase 2-alpha (Homo sapiens) (UniProt P11388); experiment: Inhibition of human Top2alpha assessed as decrease in relaxation of supercoiled pBR322 plasmid DNA at 100 uM using supercoiled pBR322 plasmid DNA as substrate incubated for 30 mins by agarose gel electrophoresis analysis
Chain of DNA topoisomerase 2-alpha (Homo sapiens) (P11388 whole entry): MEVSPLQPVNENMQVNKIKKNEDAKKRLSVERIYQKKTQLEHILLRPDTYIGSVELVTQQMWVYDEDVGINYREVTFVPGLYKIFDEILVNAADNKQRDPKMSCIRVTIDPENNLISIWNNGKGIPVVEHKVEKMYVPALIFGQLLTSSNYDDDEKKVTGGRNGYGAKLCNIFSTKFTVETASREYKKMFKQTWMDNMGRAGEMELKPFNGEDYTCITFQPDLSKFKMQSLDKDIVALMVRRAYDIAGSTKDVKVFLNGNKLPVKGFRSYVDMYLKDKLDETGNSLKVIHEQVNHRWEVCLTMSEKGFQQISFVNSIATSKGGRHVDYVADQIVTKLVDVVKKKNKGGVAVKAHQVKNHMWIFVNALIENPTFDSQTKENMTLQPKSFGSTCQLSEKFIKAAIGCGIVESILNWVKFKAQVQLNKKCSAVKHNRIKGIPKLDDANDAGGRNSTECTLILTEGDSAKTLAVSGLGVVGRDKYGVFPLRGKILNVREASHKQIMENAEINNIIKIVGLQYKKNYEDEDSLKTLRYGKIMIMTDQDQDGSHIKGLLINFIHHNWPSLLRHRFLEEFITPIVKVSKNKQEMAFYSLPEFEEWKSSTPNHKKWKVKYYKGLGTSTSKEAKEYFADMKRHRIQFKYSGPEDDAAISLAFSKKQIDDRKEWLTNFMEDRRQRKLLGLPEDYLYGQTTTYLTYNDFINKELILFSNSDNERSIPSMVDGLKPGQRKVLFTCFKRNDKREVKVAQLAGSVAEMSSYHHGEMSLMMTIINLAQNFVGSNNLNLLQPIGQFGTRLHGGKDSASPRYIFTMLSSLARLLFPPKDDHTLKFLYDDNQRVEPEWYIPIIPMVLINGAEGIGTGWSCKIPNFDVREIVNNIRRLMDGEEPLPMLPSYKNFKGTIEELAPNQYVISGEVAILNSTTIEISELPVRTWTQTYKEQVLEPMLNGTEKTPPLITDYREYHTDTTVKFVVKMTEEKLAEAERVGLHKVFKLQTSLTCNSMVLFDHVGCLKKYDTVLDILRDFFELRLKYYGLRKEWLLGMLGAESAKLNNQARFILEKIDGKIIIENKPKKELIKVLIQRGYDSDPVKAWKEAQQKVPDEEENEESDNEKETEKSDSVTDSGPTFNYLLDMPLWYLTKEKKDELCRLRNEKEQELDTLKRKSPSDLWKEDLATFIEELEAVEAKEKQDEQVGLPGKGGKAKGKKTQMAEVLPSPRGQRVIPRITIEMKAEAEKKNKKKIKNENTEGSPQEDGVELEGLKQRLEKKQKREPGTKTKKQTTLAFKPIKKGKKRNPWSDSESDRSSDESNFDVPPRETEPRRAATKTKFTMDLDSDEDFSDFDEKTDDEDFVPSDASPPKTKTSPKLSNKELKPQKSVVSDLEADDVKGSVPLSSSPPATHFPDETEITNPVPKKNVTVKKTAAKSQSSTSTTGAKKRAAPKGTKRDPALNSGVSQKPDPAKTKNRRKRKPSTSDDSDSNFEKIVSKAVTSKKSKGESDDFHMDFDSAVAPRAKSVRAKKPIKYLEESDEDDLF

`CN1c2ccccc2C(=O)N2CCCn3c(cc4cc(O)ccc43)C21` (stereo not drawn) gave an IC50 (HCT-116) of over 200 µM, an IC50 (MDA-MB-435) of over 200 µM and an IC50 (A549) of 111 µM.

`Cc1ccc2c(c1)cc1n2CCN2C(=O)c3ccccc3N(C)C12` (stereo not drawn) showed an IC50 (HCT-116) of 0.03 µM, an IC50 (MDA-MB-435) of 13.3 µM and an IC50 (A549) of over 200 µM. The inhibition [1] was “Active” and the inhibition [2] was “inactive”.

Work on `CN1c2ccccc2C(=O)N2CCc3c([nH]c4ccccc34)[C@H]21` yielded an IC50 (HCT-116) of over 200 µM, an IC50 (MDA-MB-435) of 22.1 µM and an IC50 (A549) of over 200 µM.

Molecule `CN1c2ccccc2C(=O)N2CCn3c(cc4ccccc43)C21` (stereo not drawn) has an IC50 (HCT-116) of 47.5 to 48.5 µM, an IC50 (MDA-MB-435) of over 200 µM and an IC50 (A549) of 21.5 µM. For the same molecule, the inhibition [1] was “Active” and the inhibition [2] was “inactive”.

Work on `COc1ccc2c(c1)cc1n2CCCN2C(=O)c3ccccc3N(C)C12` (stereo not drawn) yielded an IC50 (HCT-116) of 56 µM, an IC50 (MDA-MB-435) of 196 µM and an IC50 (A549) of 32 µM.

Molecule `CN1c2ccn(C)c2C(=O)N2CCn3c(cc4cc(O)ccc43)C21` (stereo not drawn) has an IC50 (HCT-116) of over 200 µM, an IC50 (MDA-MB-435) of over 200 µM and an IC50 (A549) of over 200 µM.

For `CSc1ccc2cc3n(c2c1)CCN1C(=O)c2cc(F)ccc2N(C)C31` (stereo not drawn), the IC50 (HCT-116) was 9.4 µM, the IC50 (MDA-MB-435) was 85.8 µM and the IC50 (A549) was 8.3 µM.

In the case of `COc1ccc2c(c1)c(CN1CCN(C)CC1)c1n2CCN2C(=O)c3cc(F)ccc3N(C)C12` (stereo not drawn), the IC50 (HCT-116) is reported as 5.5 µM, the IC50 (MDA-MB-435) is reported as 5.82 µM and the IC50 (A549) is reported as 32.9 µM.

With `Cc1ccc2c(c1)c(Br)c1n2CCN2C(=O)c3ccccc3N(C)C12` (stereo not drawn) the IC50 (HCT-116) was 3.3 µM, the IC50 (MDA-MB-435) was 12.3 µM and the IC50 (A549) was 14.1 µM.

`[2H]C([2H])([2H])Oc1ccc2c(c1)cc1n2CCN2C(=O)c3cc(F)ccc3N(C)C12` (stereo not drawn) gave an IC50 (HCT-116) of 0.01 µM, an IC50 (MDA-MB-435) of 11.4 µM and an IC50 (A549) of 31.3 µM.

In the case of `COc1ccc2c(c1)N(C)C1c3cc4cc(OC)ccc4n3CCN1C2=O` (stereo not drawn), the IC50 (HCT-116) is reported as 180 µM, the IC50 (MDA-MB-435) is reported as over 200 µM and the IC50 (A549) is reported as 30.8 µM.

In the case of `CN1c2ccc(F)cc2C(=O)N2CCn3c(cc4cc(Cl)ccc43)C21` (stereo not drawn), the IC50 (HCT-116) is reported as 6.7 µM, the IC50 (MDA-MB-435) is reported as 143 µM and the IC50 (A549) is reported as 53 µM.

Molecule `CN1c2ccsc2C(=O)N2CCn3c(cc4cc(O)ccc43)C21` (stereo not drawn) has an IC50 (HCT-116) of 106 µM, an IC50 (MDA-MB-435) of 66.8 µM and an IC50 (A549) of 30.3 µM.

For `COc1ccc2c(c1)cc1n2CCN2C(=O)c3cc(Br)ccc3N(C)C12` (stereo not drawn), the IC50 (HCT-116) was over 200 µM, the IC50 (MDA-MB-435) was over 200 µM and the IC50 (A549) was over 200 µM.

Molecule `COc1ccc2c(c1)cc1n2CCN2C(=O)c3cc(N)ccc3N(C)C12` (stereo not drawn) has an IC50 (HCT-116) of over 200 µM, an IC50 (MDA-MB-435) of over 200 µM and an IC50 (A549) of over 200 µM.

Work on `COc1ccc2c(c1)c(C=O)c1n2CCN2C(=O)c3cc(C)ccc3N(C)C12` (stereo not drawn) yielded an IC50 (HCT-116) of 18.1 µM, an IC50 (MDA-MB-435) of 70.5 µM and an IC50 (A549) of over 200 µM.

With `COc1ccc2c(c1)cc1n2C(C)(C)CN2C(=O)c3ccccc3N(C)C12` (stereo not drawn) the IC50 (HCT-116) was 6.2 µM, the IC50 (MDA-MB-435) was 86.4 µM and the IC50 (A549) was 181 µM.

Molecule `CN1c2ccccc2C(=O)N2CCn3c(cc4cc(F)ccc43)C21` (stereo not drawn) has an IC50 (HCT-116) of over 200 µM, an IC50 (MDA-MB-435) of over 200 µM and an IC50 (A549) of over 200 µM.

In the case of `COc1cc2cc3n(c2c(OC)c1OC)CCN1C(=O)c2ccccc2N(C)C31` (stereo not drawn), the IC50 (HCT-116) is reported as over 200 µM, the IC50 (MDA-MB-435) is reported as over 200 µM and the IC50 (A549) is reported as over 200 µM.

Molecule `COc1ccc2c(c1)cc1n2CCN2C(=O)c3sccc3N(C)C12` (stereo not drawn) has an IC50 (HCT-116) of 9.5 µM, an IC50 (MDA-MB-435) of 44.6 µM and an IC50 (A549) of 47 µM.

`COc1ccc2c(c1)N(C)C1c3cc4cc(Br)ccc4n3CCN1C2=O` (stereo not drawn) showed an IC50 (HCT-116) of over 200 µM, an IC50 (MDA-MB-435) of over 200 µM and an IC50 (A549) of over 200 µM.

In the case of `CN1c2ccccc2C(=S)N2CCn3c(cc4cc(F)ccc43)C21` (stereo not drawn), the IC50 (HCT-116) is reported as over 200 µM, the IC50 (MDA-MB-435) is reported as over 200 µM and the IC50 (A549) is reported as over 200 µM.

`COc1ccc2c(c1)c(CO)c1n2CCN2C(=O)c3cc(F)ccc3N(C)C12` (stereo not drawn) was tested, and the IC50 (HCT-116) was 5.6 µM, the IC50 (MDA-MB-435) was 22.8 µM and the IC50 (A549) was 6.6 µM.
